Values quoted from earlier work, collected in PMC8177746 (ACS applied materials & interfaces, 2020).

System: Staphylococcus aureus
Details: ref 14 (Lai et al.)

In the case of ILGPVLGLVSDTLDDVLGIL-NH2 [MH5], the MIC is listed as 80 µM.
